In one assay the test system is Akt. The format is cell-based, human.
Assay [1] concerns actin network in HeLa cells. The format is cell-based, human.
A further assay deals with p38. The format is cell-based, human.
For assay [2], the system named is HeLa cells. The format is cell-based, human.
In a further assay the test system is B16F10 cells. Format: cell-based.
The next assay deals with 4T1 cells. Format: cell-based.
In another assay the test system is D2A1 cells. The format is cell-based.
Assay [3] has as its system HeLa cells. Format: cell-based, human. The source holds these as a separate data set.
The subject of assay [4] is HeLa cells. The assay can be described thus: Apoptosis induction in HeLa cells by S. enterica aroA delivered murine tBid fusions (cleaved Caspase 3 p17 western blot). The format is cell-based, human. The conditions noted are these: 4 h, MOI of 100.
Assay [5] has as its system HeLa cells. The assay can be described thus: Removal of YopE1-138 appendage by T3SS-delivered TEV protease, Western blot of digitonin lysed HeLa cells. The conditions noted are these: coinfection, 2 h. The format is cell-based, human. An excerpt: HeLa cells in 6-well plates were infected at an MOI of 100 as described above. In case of coinfection with the TEV protease translocating Y. enterocolitica strain, the OD600 of the strains was set and the two bacterial suspensions were mixed in a tube at a ratio of 1:1 (if not otherwise indicated) before addition to the cells. At the end of the infection, the cells were washed twice with ice-cold PBS and collected by scraping in a small volume of ice-cold PBS. After centrifugation (16 000 rcf, 5 min, 4° C.) the pellet was dissolved in 0.002% digitonin supplemented with a protease inhibitor cocktail (Roche complete, Roche). The dissolved pellets were incubated for 5 minutes on ice and then centrifuged (16 000 rcf, 25 min, 4° C.). Supernatants were collected and analyzed for total protein content by […] (Pierce) before SDS PAGE and Western blotting using an anti-Myc (Santa Cruz, 9E1 1) or anti-Ink4C (Cell Signaling) antibody.

A further assay concerns cAMP. The format is cell-based, human.
A further assay has as its system zebrafish embryos. The conditions noted are these: in vivo.
The mark [6] stands for this setting: S. enterica aroA grown under SPI-1 T3SS inducing conditions.
Setting [7] is: S. enterica aroA grown under SPI-2 T3SS inducing conditions.

“Also recorded” adds a separate entry of the source.

Consider “YopEi_i38-SopE: YopE1-138 fusion with SopE from Salmonella enterica”, for which the “phosphorylation of Akt at T308 and S473” value with Akt is given as “had no effect on Akt”. For the same molecule, in assay [1], the “changes in the actin network / F-actin rearrangements” value is “induced dramatic changes in the actin network” and the “time of first changes in the actin cytoskeleton” value is on record as 2 min p.i.
In the case of “YopEi_i38-SopB: YopE1-138 fusion with Salmonella type III effector SopB”, in the assay with Akt, the “phosphorylation of Akt at T308 and S473” value was “induced a strong phosphorylation of Akt at T308 and 5473”.
“YopEi_i38-SptP: YopE1-138 fusion with SptP, GTPase activating protein for Cdc42”: the “effect of co-infection on YopE1-138-SopE-Myc triggered F-actin rearrangements” value in assay [1] is “abolished this effect in a dose dependent manner”.
As for “YopEi_i38-OspF: YopE1-138 fusion with S. flexneri type III effector OspF”, the “TNFa-induced p38 phosphorylation” value in the assay with p38 was “TNFa-induced phosphorylation was abolished”.
On to “YopEi_i38-BID: YopE1-138 fusion with human BH3 interacting-domain death agonist (BID)”, for which, in the assay on HeLa cells [2], the “apoptosis / cell death induction” value is “failed to induce apoptosis”.
Turning to “YopEi_i38-SopE-Myc: YopE1-138 fusion with SopE and MycHis tag”, the “changes in the actin network / F-actin rearrangements” value in [1] is “triggered massive F-actin rearrangements”.
Regarding “BH3 domain of murine BID: YopE1-138 fusion with BH3 domain of murine tBID, codon optimized for Y. enterocolitica”, the “cell death / apoptosis induction” value with B16F10 cells, in the assay with 4T1 cells, in the assay with D2A1 cells and in the assay with HeLa cells [3] was “induce massive cell death; also recorded: induces massive apoptosis” in each case.
Take “murine tBID: YopE1-138 fusion with murine tBID codon optimized for Y. enterocolitica”: the “cell death / apoptosis induction” value in the assay with B16F10 cells, in the assay on 4T1 cells, in the assay on D2A1 cells and with HeLa cells [3] was “triggered cell death; also recorded: induces massive apoptosis” throughout.
Regarding “Murine tBID fused to full length SteA: murine tBID fused to full length SteA, delivered by S. enterica”, the “apoptosis induction (CASP3 p17 production)” value in the assay with HeLa cells [4] (setting [6]) and in the assay on HeLa cells [4] (setting [7]) was “lead to apoptosis induction in HeLa cells” each time.
With “TEV protease: TEV protease (S219V variant) fused to YopE1-138, delivered via T3SS”, the “function of TEV protease delivered via T3SS” value in the assay with HeLa cells [5] is on record as “functional”.
Turning to “BepG: YopE1-138 fusion with the Bid domain of the B. henselae effector BepG”, the cAMP production result in the assay on cAMP is recorded as “failed to induce cAMP”.
In the case of “murine BAX: YopE1-138 fusion with BH3 domain of murine BAX, codon optimized for Y. enterocolitica”, the “cell death / apoptosis induction” value in the assay on B16F10 cells, in the assay with 4T1 cells, in the assay with D2A1 cells and in the assay on HeLa cells [3] was “induce massive cell death; also recorded: induces massive apoptosis” throughout.
On to “BepA: YopE1-138 fusion with full length type IV effector BepA from B. henselae”, for which the cAMP production entry with cAMP was “triggered cAMP production in expected amounts”.
As for “YopEi_i38-z-BIM: YopE1-138 fusion with zebrafish apoptosis inducer BIM”, in the assay on HeLa cells [2], the “apoptosis / cell death induction” value is recorded as “showed clear signs of cell death”. Further, in the assay with zebrafish embryos, the “automated image analysis of Caspase 3 p17 staining near bacteria” value is on record as “induce apoptosis in nearby cells by far more than control bacteria do” and the “cleaved CASP3 (apoptosis) in regions surrounding the bacteria” value is given as “strong increase in presence of cleaved CASP3; also recorded: induces apoptosis in zebrafish embryos”.
In the case of “BepAE30 5-end: YopE1-138 fusion with BepA E305-end containing the C-terminal Bid domain”, in the assay with cAMP, the cAMP production entry is on record as “triggered cAMP production in expected amounts”.

B1: SteAi_2o fused murine tBID: murine tBID fused to the 20 N-terminal amino acids of SteA, delivered by S. enterica (protein)
chain: MPYTSVSTYARALSGNKLPHGTGSQASRSFNQGRIEPDSESQEEIIHNIARHLAQIGDEMDHNIQPTLVRQLAAQFMNGSLSEEDKRNCLAKALDEVKTAFPRDMENDKAMLIMTMLLAKKVASHAPSLLRDVFHTTVNFINQNLFSYVRNLVRNEMD
modifications: SteA1-20 - S. enterica codon optimized murine t-BID
notes: murine tBID fused to the 20 N-terminal amino acids of SteA, delivered by S. enterica
B1: the “apoptosis induction (CASP3 p17 production)” value in the assay with HeLa cells [4] (setting [6]) and in the assay on HeLa cells [4] (setting [7]) was “failed to induce apoptosis” each time.

The values are drawn from US12091670B2, “Bacteria-based protein delivery” (Universitaet Basel, priority 2014, dated 2024).
